In PubChem BioAssay AID256 (DTP/NCI, 2004):
Values joined by “and” are separate entries in the source; they are usually repeats but may differ in a detail not shown here. Equal values may be shown once. Toxic doses and inconclusive results are not listed. Rule for the calls: active = survival T/C of 150% or more; inactive = T/C below 125% in these data.

System: CD2F1 mice, L1210 leukemia ip, survival T/C
Test: NCI In Vivo Anticancer Drug Screen. Data for tumor model L1210 Leukemia (intraperitoneal) in CD2F1 (CDF1) mice
Details: endpoint: mean survival time, higher = longer survival
In short: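 Implant tumor; dose compound or vehicle; measure endpoint in both groups; report treated divided by control.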

[1] = dose: 100.0 mg/kg/injection, schedule: Q01DX001 (ip), vehicle: saline
[2] = dose: 200.0 mg/kg/injection, schedule: Q01DX001 (ip), vehicle: saline
[3] = dose: 100.0 mg/kg/injection, schedule: Q01DX001 (ip), vehicle: other
[4] = dose: 200.0 mg/kg/injection, schedule: Q01DX001 (ip), vehicle: other
[5] = dose: 400.0 mg/kg/injection, schedule: Q01DX001 (ip), vehicle: other
[6] = dose: 50.0 mg/kg/injection, schedule: Q04DX002 (ip), vehicle: saline with Tween-80
[7] = dose: 100.0 mg/kg/injection, schedule: Q01DX001 (ip), vehicle: saline with Tween-80
[8] = dose: 100.0 mg/kg/injection, schedule: Q01DX009 (ip), vehicle: saline with Tween-80
[9] = dose: 100.0 mg/kg/injection, schedule: Q04DX003 (ip), vehicle: saline with Tween-80
[10] = dose: 200.0 mg/kg/injection, schedule: Q01DX001 (ip), vehicle: saline with Tween-80
[11] = dose: 200.0 mg/kg/injection, schedule: Q01DX009 (ip), vehicle: saline with Tween-80
[12] = dose: 200.0 mg/kg/injection, schedule: Q04DX003 (ip), vehicle: saline with Tween-80
[13] = dose: 400.0 mg/kg/injection, schedule: Q01DX001 (ip), vehicle: saline with Tween-80
[14] = dose: 400.0 mg/kg/injection, schedule: Q01DX009 (ip), vehicle: saline with Tween-80
[15] = dose: 400.0 mg/kg/injection, schedule: Q04DX003 (ip), vehicle: saline with Tween-80
[16] = dose: 25.0 mg/kg/injection, schedule: Q04DX002 (ip), vehicle: saline with Tween-80
[17] = dose: 1.5 mg/kg/injection, schedule: Q01DX009 (ip), vehicle: saline with Tween-80
[18] = dose: 3.0 mg/kg/injection, schedule: Q01DX009 (ip), vehicle: saline with Tween-80
[19] = dose: 6.0 mg/kg/injection, schedule: Q01DX009 (ip), vehicle: saline with Tween-80

Measured: T/C

Nc1cccc(/C=C/c2nc(N)nc(N)c2-c2ccc(Cl)c(Cl)c2)c1
inactive: dose: 75.0 mg/kg/injection, schedule: Q01DX001 (ip), vehicle: saline 91 % of control | dose: 150.0 mg/kg/injection, schedule: Q01DX001 (ip), vehicle: saline 92 % of control | dose: 300.0 mg/kg/injection, schedule: Q01DX001 (ip), vehicle: saline 91 % of control

c1ccc(-c2nc(-c3nn[nH]n3)c3ccccc3n2)cc1
inactive: [1] 89 % of control | [2] 97 % of control

O=[N+]([O-])c1ccc(N/N=C/c2cccc(CO)c2)c([N+](=O)[O-])c1
inactive: dose: 100.0 mg/kg/injection, schedule: Q04DX003 (ip), vehicle: saline 94 % of control | dose: 200.0 mg/kg/injection, schedule: Q04DX003 (ip), vehicle: saline 88 % of control | dose: 400.0 mg/kg/injection, schedule: Q04DX003 (ip), vehicle: saline 96 % of control

Cc1ccc(C2=CSc3ccccc3N2)c(C)c1
inactive: dose: 100.0 mg/kg/injection, schedule: Q04DX002 (ip), vehicle: other 96 % of control | dose: 200.0 mg/kg/injection, schedule: Q04DX002 (ip), vehicle: other 100 % of control | dose: 400.0 mg/kg/injection, schedule: Q04DX002 (ip), vehicle: other 100 % of control

O=c1c2[nH]cnc2ncn1C1CCCC1
inactive: [3] 100 % of control | [4] 100 % of control | [5] 101 % of control

O=C(NC(=S)Nc1cccc2ccccc12)c1cccc(Br)c1
inactive: [6] 89 % of control and 98 % of control | [7] 96 % of control | [8] 98 % of control and 104 % of control | [9] 96 % of control | [10] 95 % of control | [11] 96 % of control and 98 % of control | [12] 100 % of control | [13] 95 % of control | [14] 102 % of control and 106 % of control | dose: 400.0 mg/kg/injection, schedule: Q04DX002 (ip), vehicle: saline with Tween-80 90 % of control and 95 % of control | [15] 96 % of control

Cc1cccc([N+](=O)[O-])n1
inactive: dose: 25.0 mg/kg/injection, schedule: Q04DX003 (ip), vehicle: saline with Tween-80 109 % of control | dose: 50.0 mg/kg/injection, schedule: Q04DX003 (ip), vehicle: saline with Tween-80 95 % of control | [9] 98 % of control

Cc1[nH]c2cc(Cl)ccc2c1CC(=O)O
inactive: [3] 101 % of control | [4] 98 % of control | [5] 98 % of control

Nc1ccc(CCC(=O)Nc2ccc(S(=O)(=O)F)cc2)cc1
inactive: [1] 97 % of control | [2] 102 % of control | dose: 400.0 mg/kg/injection, schedule: Q01DX001 (ip), vehicle: saline 97 % of control

O=C(NC(=O)c1ccccc1)NS(=O)(=O)c1ccccc1
inactive: [8] 113 % of control | [11] 109 % of control | [14] 98 % of control

CC(=O)O[C@H]1CC[C@H]2[C@@H]3CCC4=C(Cl)C(=O)CC[C@]4(C)[C@H]3CC[C@]12C
inactive: [8] 96 % of control | [9] 97 % of control | [11] 94 % of control | [12] 96 % of control | [14] 94 % of control | [15] 103 % of control

O=C1C2C3CC4C2C(Br)C2C1C3C42 (stereo not given)
inactive: [16] 104 % of control | [6] 100 % of control

C[CH2][Sn]([F])([CH2]C)[CH2]C
inactive: dose: 0.37 mg/kg/injection, schedule: Q01DX009 (ip), vehicle: saline with Tween-80 98 % of control | dose: 0.75 mg/kg/injection, schedule: Q01DX009 (ip), vehicle: saline with Tween-80 101 % of control | [17] 104 % of control | [18] 102 % of control | [19] 98 % of control

C/C(=N/O)c1cccc([N+](=O)[O-])c1
inactive: [8] 95 % of control | [9] 104 % of control | [11] 98 % of control | [12] 95 % of control | [15] 103 % of control

NC(N)=N/N=C/c1ccc(Cl)cc1
inactive: dose: 20.0 mg/kg/injection, schedule: Q01DX009 (ip), vehicle: Klucel (hydroxypropylcellulose) (HPC) 100 % of control | dose: 40.0 mg/kg/injection, schedule: Q01DX009 (ip), vehicle: Klucel (hydroxypropylcellulose) (HPC) 96 % of control

CCOC(=O)c1cc2cc([N+](=O)[O-])ccc2[nH]1
inactive: [9] 92 % of control | [12] 87 % of control | [15] 91 % of control

CC(=O)[O][Hg][c]1c(C)c(C)[c]([Hg][O]C(C)=O)c(C)c1C
inactive: [16] 87 % of control | [6] 87 % of control

Cc1cc(C)nc(NS(=O)(=O)c2ccc(NCN3C(=O)c4ccccc4C3=O)cc2)n1
inactive: [7] 101 % of control | [8] 96 % of control | [10] 107 % of control | [11] 94 % of control | [13] 107 % of control | [14] 90 % of control

COC1OC2C(CO)OC(n3ncc4c3ncn3cnnc43)C2O1 (stereo not given)
inactive: dose: 12.5 mg/kg/injection, schedule: Q01DX005 (ip), vehicle: distilled water + Tween-80 96 % of control | dose: 25.0 mg/kg/injection, schedule: Q01DX005 (ip), vehicle: distilled water + Tween-80 96 % of control | dose: 50.0 mg/kg/injection, schedule: Q01DX005 (ip), vehicle: distilled water + Tween-80 92 % of control | dose: 100.0 mg/kg/injection, schedule: Q01DX005 (ip), vehicle: distilled water + Tween-80 96 % of control | dose: 200.0 mg/kg/injection, schedule: Q01DX005 (ip), vehicle: distilled water + Tween-80 96 % of control

O=[N+]([O-])c1ccc2nc(Cl)sc2c1
inactive: dose: 25.0 mg/kg/injection, schedule: Q01DX009 (ip), vehicle: saline with Tween-80 102 % of control | dose: 50.0 mg/kg/injection, schedule: Q01DX009 (ip), vehicle: saline with Tween-80 103 % of control | [8] 100 % of control | [9] 86 % of control

O=C1CCCO1
inactive: dose: 12.0 mg/kg/injection, schedule: Q01DX009 (ip), vehicle: saline 99 % of control | dose: 50.0 mg/kg/injection, schedule: Q01DX009 (ip), vehicle: saline 91 % of control | dose: 100.0 mg/kg/injection, schedule: Q01DX009 (ip), vehicle: saline 92 % of control | dose: 100.0 mg/kg/injection, schedule: Q04DX002 (ip), vehicle: saline 107 % of control | dose: 200.0 mg/kg/injection, schedule: Q04DX002 (ip), vehicle: saline 98 % of control | dose: 400.0 mg/kg/injection, schedule: Q04DX002 (ip), vehicle: saline 102 % of control

CCCCCCCCCCCCCCCCCC[N+](C)(C)C (tested in a mixture with another compound)
inactive: [17] 100 % of control | [18] 94 % of control | [19] 94 % of control

OC(c1ccccc1)C1(c2ccccc2)OCCO1 (stereo not given)
inactive: [8] 95 % of control | [9] 97 % of control | [11] 90 % of control | [12] 92 % of control | [14] 92 % of control | [15] 98 % of control

COc1ccc(C[As+](c2ccccc2)(c2ccccc2)c2ccccc2)cc1
inactive: dose: 5.0 mg/kg/injection, schedule: Q01DX001 (ip), vehicle: saline 102 % of control | dose: 10.0 mg/kg/injection, schedule: Q01DX001 (ip), vehicle: saline 95 % of control | dose: 20.0 mg/kg/injection, schedule: Q01DX001 (ip), vehicle: saline 98 % of control | dose: 40.0 mg/kg/injection, schedule: Q01DX001 (ip), vehicle: saline 100 % of control

C=CC[n+]1cccc2ccccc21
inactive: [9] 111 % of control

CC(=O)OC1CCC2C3CCC4(C)C(C(C)CCCC(C)C)CCC4C3CC(C)(O)C2C1 (stereo not given)
inactive: dose: 100.0 mg/kg/injection, schedule: Q01DX001 (sc), vehicle: steriod suspending solution 101 % of control | dose: 200.0 mg/kg/injection, schedule: Q01DX001 (sc), vehicle: steriod suspending solution 101 % of control | dose: 400.0 mg/kg/injection, schedule: Q01DX001 (sc), vehicle: steriod suspending solution 101 % of control

O=C(NO)c1cccnc1
active: dose: 800.0 mg/kg/injection, schedule: Q01DX009 (ip), vehicle: other 164 % of control
inactive: dose: 270.0 mg/kg/injection, schedule: Q01DX009 (ip), vehicle: other 121 % of control | [5] 98 % of control | dose: 600.0 mg/kg/injection, schedule: Q01DX001 (ip), vehicle: other 101 % of control | dose: 800.0 mg/kg/injection, schedule: Q01DX001 (ip), vehicle: other 101 % of control
